Literature values, collected in paper PMC4386841 (Journal of the American Chemical Society, 2015).
Read-outs that look alike come from different tables or passages of the source.

Assays:
[1] = system: MIF

Question: With COC(=O)C[C@H]1CC(c2ccc(O)cc2)=NO1 [(R)-ISO-1] as the molecule, how does the IC50 ([1]; DOPA as substrate) read?
Answer: […]

Question: For O=c1c(-c2ccc(O)c(O)c2)coc2cc(O)ccc12 [Orita-13, 3-(3,4-dihydroxyphenyl)-7-hydroxy-4H-chromen-4-one], which Ki ([1]; dopachrome assay) is on record?
Answer: 38 nM

Question: With CN1C(C(=O)Nc2ccccn2)=C(O)c2ccccc2S1(=O)=O [Piroxicam] as the molecule, how does the “Aqueous solubility, literature value” read?
Answer: 5.9 µg/mL
